Converted amounts (≈) assume the structure as drawn. Ends that are not written are not given here.
Tests used:
HSV-1 = HSV-1 attachment (adsorption) assay on Vero cells; format: cell-based; details: compound present during adsorption, 3 h at 4° C., 200 PFU; plaques after 48 h
Method: (§1) FIG. 3. The dendrimeric peptides SB105 and SB105-A10 inhibit HSV-1 and HSV-2 attachment to Vero cells. Pre-chilled Vero cells were incubated at 4° C. with different concentrations of SB105, SB105-A10, SB104 or heparin and with 200 PFU of HSV-1 or HSV-2. Following virus adsorption (3 h at 4° C.), cells were then washed with cold PBS three times to remove compound and unadsorbed viruses, overlaid with medium containing 1.2% methylcellulose and incubated at 37° C. for 48 h. Viral plaques were then stained and counted, and the mean plaque counts for each peptide concentration expressed as a percentage of the mean count of the controls. The data shown represent means±SD of three independent experiments (error bars).
(§2) Following virus adsorption (3 h at 4° C., a condition that is known to allow virus adsorption only), cells were then washed with cold PBS three times to remove compound and unadsorbed viruses, overlaid with medium containing 1.2% methylcellulose and incubated at 37° C. Forty eight hours later, plates were fixed and stained with crystal violet and the viral plaques counted.

HSV-2 = HSV-2 attachment (adsorption) assay on Vero cells; format: cell-based; details: compound present during adsorption, 3 h at 4° C., 200 PFU; plaques after 48 h
Method: as §1, §2

HCMV AD169 = assay: HCMV attachment (adsorption) assay on HELF cells; format: cell-based; details: compound present during adsorption, 3 h at 4° C., 200 PFU AD169; plaques after 6 days
Method: FIG. 6. HCMV adsorption to target cells is inhibited by SB105 and SB105-A10 dendrimeric peptides. Pre-chilled HELF cells were incubated at 4° C. with different concentrations of SB105, SB105-A10, SB104 or heparin and with 200 PFU of HCMV AD169. Following virus adsorption (3 h at 4° C.), cells were washed with cold PBS three times to remove compound and unadsorbed viruses, overlaid with medium containing 1.2% methylcellulose and incubated at 37° C. for 6 days. Viral plaques were then stained and counted and the mean plaque counts for each peptide concentration were expressed as a percentage of the mean count of the controls. The data shown represent means±SD of three independent experiments (error bars).
After 24 h, they were prechilled to 4° C. and incubated in duplicate at 4° C. with different concentrations of SB105, SB105_A10, SB104 (as negative control for inhibition of viral replication) or heparin (as a positive control for inhibition of viral adsorption) and with 200 PFU of HCMV AD169. Following virus adsorption (3 h at 4° C., a condition that is known to allow virus adsorption only), cells were then washed with cold PBS three times to remove compound and unadsorbed viruses, overlaid with medium containing 1.2% methylcellulose and incubated at 37° C. for 6 days. Plates were then fixed and stained with crystal violet and the viral plaques counted.

HIV-1IIIb = HIV-1IIIb replication in C8166 cells (RNA load by real time RT-PCR, p24 ELISA); format: cell-based; details: day 7 post-infection, 0.1-20 μg/ml
Description: FIG. 8: Quantitative real time RT-PCR analysis of HIV-1 RNA load in HIV-1 infected C8166 cell culture supernatants at day 7 post infection. […] The data are reported as means±SD of three independent experiments performed in duplicate.
FIG. 9: ELISA HIV-1 p24 protein analysis in HIV-1 infected C8166 cell culture supernatants at day 7 post infection. […] The data are reported as means±SD of three independent experiments performed in duplicate.
HIV-1 RNA viral load and HIV-1 gag p24 content were determined at day 7 post-infection in the culture supernatants in three independent experiments performed in duplicate. HIV-1 RNA was extracted by Roche high pure viral nucleic acid kit (Roche, Mannheim, Germany) from 200 μl of culture supernatants and then RNA load was assessed by quantitative real time RT-PCR as previously described (Gibellini et al., 2004). In parallel, HIV-1 gag p24 protein amount was determined by ELISA HIV-1 p24 antigen kit (Biomerieux Marcy L'Etoile, France).

[1] = tested on: HCMV clinical isolate AL1; details: HELFs, M.O.I. 1, 6 days p.i.
Method: (§3) FIGS. 4A and 4B. […] HUVECs were infected with the endotheliotropic and clinical HCMV isolate VR1814 (FIG. 4B) at a M.O.I of 1. The extent of AD169 or AU replication was then assessed by titrating the infectivity of supernatants of HELF suspensions by standard plaque assay. The extent of VR1814 replication was measured by titrating the infectivity of supernatants of cell suspensions by the indirect immunoperoxidase staining procedure on HUVECs using a monoclonal antibody (mAb) reactive to the HCMV IE proteins. Plaques were microscopically counted, and the mean plaque counts for each peptide concentration were expressed as a percentage of the mean count of the controls. The number of plaques was plotted as a function of drug concentration, and the concentration producing a 50% reduction in plaque formation (IC50) was determined.
(§4) After 1 hour, they were infected with HCMV AD169 or HCMV AL1 at a M.O.I. of 1 PFU/cell. […] The cells and supernatants from the antiviral assay were then harvested and disrupted by sonication. The extent of virus replication was assessed by titrating the infectivity of supernatants of cell suspensions by standard plaque assay on HELFs.

[2] = tested on: HCMV laboratory strain AD169; details: HELFs, M.O.I. 1, treated 1 h before and during infection, 6 days p.i.
Method: as §3, §4

HCMV VR1814 = details: HUVECs, M.O.I. 1, 6 days p.i.
Method: as §3
The cells and supernatants from the antiviral assay were then harvested and disrupted by sonication.

in vitro = details: human, 293TT cells
Method: The 293TT cell line derived from human embryonal kidney cells transformed with the SV40 large T antigen was cultured in Dulbecco's modified Eagle's medium (DMEM) (Gibco/BRL, Gaithersburg, Md., USA) supplemented with heat-inactivated 10% bovine serum (Gibco/BRL), Glutamax-I (Invitrogen, Carlsbad, Calif., USA) and nonessential aminoacids. This cell line allows high levels of protein to be expressed from vectors containing the SV40 origin due to overreplication of the expression plasmid (Buck et al., 2004).
Cells were seeded at a density of 5×10^4/well in 24-well plates; the next day they were treated with serially diluted peptides to generate dose-response curves. Forty-eight or 72 h after treatment, cell viability was determined by the 3-(4,5-dimethylthiazol-2-yl)-2,5-diphenyltetrazolium bromide (MTT) method; 50% cytotoxic concentration (CC50) values were determined using Prism.

HPV-16 PsV = details: HPV-16-SEAP PsV preincubated with peptide, 293TT cells, 72 h post-infection
Description: HPV-16 PsV were produced according to previously described methods (Buck et al., 2005). Briefly, 293TT cells were transfected with the plasmid p16sheLL expressing the papillomavirus major and minor capsid proteins (L1 and L2) together with a reporter plasmid expressing the secreted alkaline phosphatase (SEAP) or the green fluorescence protein (GFP) named pYSEAP or pfwB respectively. Capsids were allowed to mature overnight in cell lysate; the clarified supernatant was then loaded on top of a 27-33-39% Optiprep (Sigma-Aldrich, St. Louis, Mo., USA) density gradient at room temperature for 4 h. […] The L1 protein content of PsV stocks was determined by comparison with bovine serum albumin standards in Coomassie-stained SDS-PAGE gels.
For the Secreted Embryonic Alkaline Phosphate (SEAP)-based assays 293TT cells were preplated 3-4 h in advance in 96-well tissue culture-treated flat bottom plates at a density of 30,000 cells/well in 100 μl neutralization buffer (DMEM without phenol red, 10% heat-inactivated FBS, 1% glutamate, 1% nonessential amino acids, 1% penicillin-streptomycin-fungizone, and 10 mM HEPES). […] The SEAP content in the clarified supernatant was determined using a Great ESCAPE SEAP Chemiluminescence Kit (BD Clontech, Mountain View, Calif., USA) as directed by the manufacturer. […]

Row | Compound | effect on HSV-1 attachment to Vero cells (HSV-1) | effect on HSV-2 attachment to Vero cells (HSV-2) | effect on HCMV attachment (adsorption) to HELF cells (HCMV AD169) | HIV-1 gag p24 content in culture supernatants (HIV-1IIIb; ELISA) | HIV-1 RNA load in culture supernatants (HIV-1IIIb; real time RT-PCR) | IC50, HCMV clinical isolate AL1 replication [1] [µg/mL] | 50% inhibition of HCMV AD169 replication (IC50) [2] [µg/mL] | IC50, endotheliotropic HCMV VR1814 replication (HCMV VR1814) [µg/mL] | CC50 (in vitro) [µg/mL] | IC50 against HPV-16 PsV (HPV-16 PsV) [µg/mL]
1 | heparin | prevented virus adsorption | prevented virus adsorption | prevented virus adsorption |  |  |  |  |  |  | 
2 | (NKKIRVRL)4-Lys2-Lys-β-Ala (also: tetramer on Lys2-Lys-β-Ala core) [SB104] | did not significantly reduce | did not significantly reduce | did not significantly reduce | did not induce significant inhibition | did not induce significant inhibition |  |  |  |  | 
3 | CC[C@H](C)[C@H](NC(=O)[C@H](CCCNC(=N)N)NC(=O)[C@@H](NC(=O)[C@H](CCCNC(=N)N)NC(=O)[C@H](CC(C)C)NC(=O)[C@H](CO)NC(=O)[C@H](C)N)C(C)C)C(=O)N[C@@H](CCCCN)C(=O)N[C@@H](CCCCN)C(=O)N[C@@H](CCC(N)=O)C(=O)NCCCC[C@H](NC(=O)[C@H](CCC(N)=O)NC(=O)[C@H](CCCCN)NC(=O)[C@H](CCCCN)NC(=O)[C@@H](NC(=O)[C@H](CCCNC(=N)N)NC(=O)[C@@H](NC(=O)[C@H](CCCNC(=N)N)NC(=O)[C@H](CC(C)C)NC(=O)[C@H](CO)NC(=O)[C@H](C)N)C(C)C)[C@@H](C)CC)C(=O)NCCCC[C@H](NC(=O)[C@H](CCCCNC(=O)[C@H](CCC(N)=O)NC(=O)[C@H](CCCCN)NC(=O)[C@H](CCCCN)NC(=O)[C@@H](NC(=O)[C@H](CCCNC(=N)N)NC(=O)[C@@H](NC(=O)[C@H](CCCNC(=N)N)NC(=O)[C@H](CC(C)C)NC(=O)[C@H](CO)NC(=O)[C@H](C)N)C(C)C)[C@@H](C)CC)NC(=O)[C@H](CCC(N)=O)NC(=O)[C@H](CCCCN)NC(=O)[C@H](CCCCN)NC(=O)[C@@H](NC(=O)[C@H](CCCNC(=N)N)NC(=O)[C@@H](NC(=O)[C@H](CCCNC(=N)N)NC(=O)[C@H](CC(C)C)NC(=O)[C@H](CO)NC(=O)[C@H](C)N)C(C)C)[C@@H](C)CC)C(=O)NCCC(N)=O [SB105, (ASLRVRIKKQ)4-Lys2-Lys-β-Ala] |  |  |  |  |  | 1.2 (≈ 0.231 µM) | 1.17 | 1.1 (≈ 0.212 µM) | > 100 | 11.6 (≈ 2.23 µM)

Source: patent US8877738B2, “Antipathogenic peptides” (priority 2009, dated 2014)
